Several values for one entry are separate records, joined by “and”; a condition that tells them apart may be missing. Identical values can stand only once.
What was measured:
[1] = target: Glutamate metabotropic receptor 1 (Sus scrofa, UniProt F1S737)
[2] = target: Glutamate metabotropic receptor 5 (Cavia porcellus, UniProt H0VDS0)
Glutamate metabotropic receptor 5, sequence (H0VDS0 whole entry): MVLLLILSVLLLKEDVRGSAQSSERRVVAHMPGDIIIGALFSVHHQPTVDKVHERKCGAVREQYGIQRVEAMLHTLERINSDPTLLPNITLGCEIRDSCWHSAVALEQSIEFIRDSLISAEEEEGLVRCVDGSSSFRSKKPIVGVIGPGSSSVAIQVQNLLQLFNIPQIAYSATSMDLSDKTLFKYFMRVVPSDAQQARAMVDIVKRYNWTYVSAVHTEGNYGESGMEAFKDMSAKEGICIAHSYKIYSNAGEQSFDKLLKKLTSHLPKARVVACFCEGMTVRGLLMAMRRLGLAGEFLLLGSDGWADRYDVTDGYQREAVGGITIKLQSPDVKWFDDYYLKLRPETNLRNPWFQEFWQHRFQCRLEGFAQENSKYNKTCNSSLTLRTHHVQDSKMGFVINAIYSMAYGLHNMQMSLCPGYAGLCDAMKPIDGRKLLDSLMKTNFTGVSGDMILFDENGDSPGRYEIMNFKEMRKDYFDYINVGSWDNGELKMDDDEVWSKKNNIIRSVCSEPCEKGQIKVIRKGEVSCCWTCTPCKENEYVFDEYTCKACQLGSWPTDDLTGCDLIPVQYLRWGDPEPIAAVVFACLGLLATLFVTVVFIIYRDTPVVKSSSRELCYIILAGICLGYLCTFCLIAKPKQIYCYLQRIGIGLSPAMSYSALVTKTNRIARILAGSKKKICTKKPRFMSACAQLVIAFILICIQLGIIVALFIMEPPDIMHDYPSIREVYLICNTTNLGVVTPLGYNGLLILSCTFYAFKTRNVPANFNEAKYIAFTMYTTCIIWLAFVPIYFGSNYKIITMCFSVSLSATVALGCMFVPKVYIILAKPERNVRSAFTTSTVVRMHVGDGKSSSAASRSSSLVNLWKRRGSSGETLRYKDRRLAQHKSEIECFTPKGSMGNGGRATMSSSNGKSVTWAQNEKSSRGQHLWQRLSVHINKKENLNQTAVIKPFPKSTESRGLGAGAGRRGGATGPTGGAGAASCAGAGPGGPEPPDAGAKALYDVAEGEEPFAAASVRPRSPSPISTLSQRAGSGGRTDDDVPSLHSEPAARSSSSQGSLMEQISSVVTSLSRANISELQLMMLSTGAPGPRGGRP

Glutamate metabotropic receptor 1, sequence (F1S737 whole entry): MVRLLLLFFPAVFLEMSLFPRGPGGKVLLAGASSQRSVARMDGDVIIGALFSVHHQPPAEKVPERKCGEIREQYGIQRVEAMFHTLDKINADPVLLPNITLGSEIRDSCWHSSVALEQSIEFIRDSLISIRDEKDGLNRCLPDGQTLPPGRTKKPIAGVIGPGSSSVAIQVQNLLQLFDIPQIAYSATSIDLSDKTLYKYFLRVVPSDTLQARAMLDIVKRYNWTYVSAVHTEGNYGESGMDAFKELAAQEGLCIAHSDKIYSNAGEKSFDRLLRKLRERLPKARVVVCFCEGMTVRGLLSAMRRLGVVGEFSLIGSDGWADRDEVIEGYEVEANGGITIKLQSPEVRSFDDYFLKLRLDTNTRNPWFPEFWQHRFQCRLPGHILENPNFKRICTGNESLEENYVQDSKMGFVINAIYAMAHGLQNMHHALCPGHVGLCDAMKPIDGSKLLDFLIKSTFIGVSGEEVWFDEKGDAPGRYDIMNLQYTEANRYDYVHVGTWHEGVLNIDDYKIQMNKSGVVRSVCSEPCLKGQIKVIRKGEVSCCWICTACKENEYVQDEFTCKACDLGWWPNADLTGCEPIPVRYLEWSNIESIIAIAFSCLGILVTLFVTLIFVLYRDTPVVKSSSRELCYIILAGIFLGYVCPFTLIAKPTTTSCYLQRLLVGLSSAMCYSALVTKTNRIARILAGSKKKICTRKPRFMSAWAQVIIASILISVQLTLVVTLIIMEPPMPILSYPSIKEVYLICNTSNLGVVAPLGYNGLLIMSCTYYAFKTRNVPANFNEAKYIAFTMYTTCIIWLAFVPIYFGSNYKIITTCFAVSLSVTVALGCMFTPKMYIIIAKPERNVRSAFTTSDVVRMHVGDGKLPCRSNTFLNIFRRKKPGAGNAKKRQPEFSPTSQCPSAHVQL

SMILES | Ki [1] | Ki [2]
N[C@@H](CCC(=O)O)C(=O)O [L-Glutamic acid] | > 10 µM | 9.75 µM and 7.67 µM
N[C@]1(C(=O)O)CC[C@@H](C(=O)O)C1 | > 10 µM | > 10 µM
N[C@@H](Cn1oc(=O)[nH]c1=O)C(=O)O [2-amino-3-(3,5-dioxo[1,2,4]oxadiazolidin-2-yl)propionic acid] | 0.26 µM | 0.022 µM and 0.047 µM
N[C@@]1(C(=O)O)CC[C@H](C(=O)O)C1 [1S, 3R-ACPD] | > 10 µM and 9.3 µM | > 10 µM and 6.7 µM and 5.3 µM
NC(C(=O)O)c1cc(=O)[nH]o1 (stereo not given) [Amino-(3-hydroxy-isoxazol-5-yl)-acetic acid(Ibotenic acid)] | > 10 µM | 2.87 µM and 1.93 µM

— BindingDB's records for PubMed 7751958 (Cnrs Ccipe, 1995)
